According to patent publication US20250345317A1, “New pharmaceutical compounds, methods and uses thereof” (BBIT-THERAPEUTICS, LDA., priority 2020, published 2025):

Legend:
OVCAR-3 = experiment: Growth inhibition, SRB assay, OVCAR-3; type: cell-based, human; details: Homo sapiens, OVCAR-3, 48 h
From the text: (§1) Table 2 refers to the growth inhibitory effect of COMP, olaparib and cisplatin (CDDP) in a panel of human immortalized breast (T47D, MCF-7, MDA-MB-231, MDA-MB-468, SK-BR-3 and HCC1937), ovarian and endocervical (OCVAR, SKOV-3, […],IGROV-1 and HeLa), pancreatic (PANC-1 and MIAPACA), neuroblastoma (SHSY-5Y), lung (NCI-H460), prostate (VCaP) melanoma (A375 and SK-MEL-5) and glioblastoma (SF-208) cancer cells, immortalized normal MCF10a and HFF1 human cells, and patient-derived ovarian (PD-OVCA #1, #9, #41, #49 and #62) cancer cells. […] Data are mean±SEM (n=5).
(§2) In an embodiment, IC50 values were determined by Sulforhodamine B (SRB) or MTS [3-(4,5-dimethylthiazol-2-yl)-5-(3-carboxymethoxyphenyl)-2-(4-sulfophenyl)-2H-tetrazolium] assay in immortalized and PD-OVCA cells, respectively. Cancer cells were plated in 96-well plates and incubated for 24 hours. Cells were then exposed to serial dilutions of compounds for 48 hours. The solvent DMSO corresponding to the maximum concentration used in these assays (0.025%) was included as control. Results are the mean±S.E.M. of 3-5 independent experiments.

SKOV-3 = experiment: Growth inhibition, SRB assay, SKOV-3; type: cell-based, human; details: Homo sapiens, SK-OV-3, 48 h
From the text: as §1, §2

HeLa = experiment: Growth inhibition, SRB assay, HeLa; type: cell-based; details: Homo sapiens, wild-type BRCA1/2, 48 hours
From the text: as §1, §2

PANC-1 = experiment: Growth inhibition, SRB assay, PANC-1; type: cell-based; details: Homo sapiens, PANC-1, wild-type BRCA1/2, 48 hours
From the text: as §1, §2

MiaPACA = experiment: Growth inhibition, SRB assay, MiaPACA; type: cell-based; details: Homo sapiens, MIA PaCa-2, wild-type BRCA1/2, 48 hours
From the text: as §1, §2

HCC1937 (5382insC) = experiment: Growth inhibition, SRB assay, HCC1937; type: cell-based, human; details: Homo sapiens, HCC1937, 48 h
From the text: as §1, §2

HFF-1 = experiment: Growth inhibition, SRB assay, normal HFF-1 cells; type: cell-based, human; details: Homo sapiens, HFF-1, 48 h
From the text: as §1, §2

[1] = test system: PD-OVCA#1 (Lack of exon 17 in BRCA1); experiment: Growth inhibition, MTS assay, PD-OVCA#1; type: cell-based, human; details: Homo sapiens, PD-OVCA#1, pathogenic mutant BRCA1/2, 48 hours
From the text: as §1, §2

[2] = test system: PD-OVCA#41 (mutBRCA2: c. 3707dupA); experiment: Growth inhibition, MTS assay, PD-OVCA#41; type: cell-based, human; details: Homo sapiens, PD-OVCA#41, benign mutant BRCA1 with pathogenic mut BRCA2, 48 hours
From the text: as §1, §2

PD-OVCA#49 = experiment: Growth inhibition, MTS assay, PD-OVCA#49; type: cell-based, human; details: Homo sapiens, PD-OVCA#49, wild-type BRCA1/2, 48 hours
From the text: as §1, §2

[3] = test system: ovarian and endocervical cancer cells (OCVAR, SKOV-3, SK-BR-3, IGROV-1 and HeLa); experiment: Growth inhibition, panel of ovarian and endocervical cancer cells; type: cell-based; details: Homo sapiens, range over OCVAR, 48 hours
Protocol: In an embodiment, the activity of COMP compound was tested in an array of human normal and cancer cell lines (Table 2, FIG. 2).
as §1, §2

[4] = test system: triple-negative breast cancer and ovarian cancer cells; experiment: Cell cycle progression by flow cytometry (propidium iodide); type: cell-based, human; details: MDA-MB-231 cells, 6 and 12 μM, 48 hours
Protocol: (§3) Cell cycle phases were analysed by flow cytometry using propidium iodide (PI) and quantified using the FlowJo software. Apoptosis and ROS were analysed by flow cytometry using FITC-Annexin V/PI and 2′,7′-dichlorodihydrofluorescein diacetate (H2DCFDA) respectively.
In an embodiment, the COMP compound modulated the expression of key proteins involved in homologous DNA repair, proliferation, chemoresistance, induced cell cycle arrest, apoptosis and ROS generation, in triple-negative breast cancer and ovarian cancer cells.

[5] = test system: triple-negative breast cancer and ovarian cancer cells; experiment: Apoptosis by flow cytometry (FITC-Annexin V/PI); type: cell-based, human; details: 6 and 12 μM, 48 hours
Protocol: as §3

[6] = test system: triple-negative breast cancer and ovarian cancer cells; experiment: ROS generation (H2DCFDA flow cytometry); type: cell-based, human; details: 6 and 12 μM, 48 hours
Protocol: as §3

[7] = test system: phosphorylated (Ser139) histone H2AX (γH2AX); experiment: γH2AX expression and foci formation; type: cell-based, human; details: 12 μM, 48 hours; MDA-MB-231, HCC1937 and IGROV-1 cells
Protocol: (§4) FIG. 10 illustrates the effect of 12 μM COMP on (A) γH2AX expression levels and on (FIG. 10B) γH2AX and RAD51 foci formation, and BRCA1 foci formation and cellular localization after 48 hours of treatment. […] FIG. 10B are representative images generated using Fiji software (scale bar=100 μm; 400 × magnification).
In an embodiment, 12 μM of COMP increased the amount of phosphorylated (Ser139) histone H2AX (γH2AX) (FIG. 10A) and the number of γH2AX-positive foci formed in MDA-MB-231, HCC1937 and IGROV-1 cells (FIG. 10B and FIG. 10C).

RAD51 = RAD51 foci formation by immunofluorescence; type: cell-based, human; details: 12 μM, 48 hours
Protocol: as §4

BRCA1 = BRCA1 cellular localization by immunofluorescence; type: cell-based, human; details: 12 μM, 48 hours; MDA-MB-231, HCC1937 and IGROV-1 cells
Protocol: as §4

IGROV-1 tumors = experiment: In vivo antitumor activity in xenograft mice; details: 2 mg/kg intraperitoneal, seven administrations; compared to vehicle or 50 mg/kg of olaparib
Protocol: FIG. 14 illustrates the in vivo antitumor activity of COMP. C57BL/6-Rag2−/−IL2rg−/− xenograft mice, carrying IGROV-1 cells, were treated with vehicle (control), or 2 mg/kg of COMP or 50 mg/kg of olaparib by intraperitoneal injection three times per week (seven administrations in total). The treatment was initiated when palpable tumors were established (^˜100 mm3). […] In FIGS. 14A-C, data are mean±SEM, n=13 animals.

IC50 (OVCAR-3; OVCAR-3, BRCA1 wild-type, 48 hours (second Table 2)): 13.9 µM
IC50 (OVCAR-3; OVCAR-3, wild-type BRCA1/2, 48 hours): 13.9 ± 1.7 µM
IC50 (SKOV-3; SKOV-3, wild-type BRCA1/2, 48 hours): 8.9 ± 2.5 µM
IC50 (SKOV-3; Skov-3, BRCA1 wild-type, 48 hours (second Table 2)): 8.9 µM
IC50 (HeLa): 5.8 ± 0.8 µM
IC50 (PANC-1): 4.4 ± 0.9 µM
IC50 (MiaPACA): 4.5 ± 0.4 µM
IC50 (HCC1937 (5382insC); HCC1937, BRCA1 mutant, 48 hours (second Table 2)): 5.2 µM
IC50 (HCC1937 (5382insC); HCC1937, mutant BRCA1, 48 hours): 5.2 ± 1.3 µM
IC50 [3]: 4.6 to 13.9 µM
Structure (SMILES): CC[C@H]1CN(C)C2Cc3c([nH]c4ccccc34)/C(=N/Nc3ccc(Br)cn3)C[C@@H]1[C@@H]2C(=O)OC [COMP, methyl (5R,6S,14S,E)-8-(2-(5-bromopyridin-2-yl) hydrazineylidene)-5-ethyl-3-methyl-2,3,4,5,6,7,8,9-octahydro-1H-2,6-methanoazecino [5,4-b]indole-14-carboxylate]
IC50 (HFF-1; HFF1 normal cells, 48 hours (second Table 2)): 33.6 µM
IC50 (HFF-1; HFF-1 normal cells, 48 hours): 33.6 µM
IC50 [1]: 2.7 ± 0.6 µM
IC50 [2]: 14.1 ± 0.9 µM
IC50 (PD-OVCA#49): 15.1 ± 1.4 µM
cell cycle arrest phase [4]: cell cycle arrest at G0/G1-
apoptotic cell death (Annexin-V-positive cells) [5]: significant increase in apoptotic cell death
ROS production [6]: increases ROS production
amount of γH2AX and number of γH2AX-positive foci [7]: increased
RAD51-foci formation (RAD51): pronounced reduction
BRCA1 cellular localization (BRCA1): triggered the nucleocytoplasmic translocation of BRCA1
growth of IGROV-1 tumors (IGROV-1 tumors): significantly inhibited
